Test results: ChEMBL document CHEMBL5385923, “HPPO-Derived Meroterpenoids from the Marine-Derived Fungus Penicillium sp. SCSIO 41691” (J Nat Prod, 2024)

Assays:
RAW264.7 [1] = test: Antiinflammatory activity in LPS induced mouse RAW264.7 cells assessed as inhibition of NO production at 25 uM pretreated for 2 hrs followed by LPS stimulation and measured after 24 hrs by Griess reagent based assay relative to control; assay type: functional; details: time 26 hrs
RAW264.7 [2] = test: Antiinflammatory activity in LPS induced mouse RAW264.7 cells assessed as inhibition of NO production pretreated for 2 hrs followed by LPS stimulation and measured after 24 hrs by Griess reagent based assay; assay type: functional, cell-based
[3] = Cytotoxicity against mouse RAW264.7 cells assessed as reduction in cell viability incubated for 2 hrs by MTT assay; assay type: toxicity, cell-based
NCI-H1975 = test: Cytotoxicity against human NCI-H1975 cells assessed as inhibition of cell growth incubated for 24 hrs by CCK-8 assay; assay type: functional, cell-based; details: NCI-H1975, 24 h

Row | Compound | inhibition at 25 µM (RAW264.7 [1]) [%] | IC50 (RAW264.7 [2]) [µM] | CC50 at 2 h [3] [µM] | IC50 (NCI-H1975) [µM]
1 | COc1ccc(-c2cc3c(c(=O)o2)C[C@]2(O)[C@@]45CO[C@@H](CC4=O)C(C)(C)[C@]5(O)CC[C@@]2(C)O3)cc1OC | 62 | 21 | > 50 | > 80
2 | COc1ccc(-c2cc3c(c(=O)o2)C[C@H]2[C@@](C)(CC[C@@]4(O)C(C)(C)C(=O)C=C[C@]24C)O3)cc1 | 35 |  |  | > 80
3 | COc1ccc(-c2cc3c(c(=O)o2)C[C@H]2[C@@](C)(CC[C@@]45O[C@@](O)(OC4(C)C)[C@H](O)C[C@]25C)O3)cc1 | 0 |  |  | > 80
4 | COc1ccc(-c2cc3c(c(=O)o2)C[C@H]2[C@@](C)(CC[C@@]4(O)C(C)(C)OC(=O)[C@H](O)C[C@]24C)O3)cc1 | 7.6 |  |  | > 80
5 | COc1cc(-c2cc3c(c(=O)o2)C[C@]2(O)[C@@]45CO[C@@H](CC4=O)C(C)(C)[C@]5(O)CC[C@@]2(C)O3)cc(OC)c1OC | 22 |  |  | > 80
6 | COc1ccc(-c2cc3c(c(=O)o2)C[C@]24O[C@]25[C@H](C)C[C@@H](O)C(C)(C)[C@]5(O)CC[C@@]4(C)O3)cc1 | 6.3 |  |  | > 80
7 | COc1ccc(-c2cc3c(c(=O)o2)C[C@]2(O)[C@@]4(C)[C@H](O)C[C@@H](OC(C)=O)C(C)(C)[C@]4(O)CC[C@@]2(C)O3)cc1 | 2.5 |  |  | > 80
8 | COc1ccc2c(c1)c(CC(=O)O)c(C)n2C(=O)c1ccc(Cl)cc1 [INDOMETHACIN] | 57 | 24 | > 50 | 
9 | COc1cc(-c2cc3c(c(=O)o2)C[C@]2(O)[C@@]45CO[C@@H](CC4=O)C(C)(C)[C@]5(O)CC[C@@]2(C)O3)cc2c1OCO2 | 11 |  |  | 15
10 | COc1ccc(-c2cc3c(c(=O)o2)C[C@]2(O)[C@@]45O[C@]4(CC[C@@]2(C)O3)C(C)(C)[C@H](O)C[C@H]5C)cc1 | 32 |  |  | 67
